Measurements taken from patent publication US20260345568A1, “INHIBITING MONOACYLGLYCEROL LIPASE (MAGL)” (PSY THERAPEUTICS, INC., priority 2023, published 2026).

Experiments:
Flag-tagged MAGL enzyme = molecular target: T1, Flag-tagged MAGL enzyme (Homo sapiens, UniProt Q99685); test: Reversible MAGL inhibition, washout of immobilized Flag-tagged MAGL enzyme (Example C); format: biochemical; settings: for activity at 1 µM: 0.5 h, relative to control (no inhibitor before washout), immediately following a 30 minute washout, pre-washout 1 μM, read-out: % MAGL activity returning after washout; for degree to which MAGL enzymatic activity returned following washout: pre-washout compound concentration 1 μM
T1 sequence (Q99685 1-303): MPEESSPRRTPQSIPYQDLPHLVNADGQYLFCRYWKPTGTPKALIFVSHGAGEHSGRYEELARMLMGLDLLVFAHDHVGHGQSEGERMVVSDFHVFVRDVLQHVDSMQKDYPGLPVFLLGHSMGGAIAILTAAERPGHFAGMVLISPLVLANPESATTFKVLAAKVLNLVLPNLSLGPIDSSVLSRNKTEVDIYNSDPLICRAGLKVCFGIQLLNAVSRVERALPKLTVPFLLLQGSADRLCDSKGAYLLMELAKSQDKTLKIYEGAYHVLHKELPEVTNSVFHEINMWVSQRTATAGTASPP
Procedure: The reversible mechanism of MAGL inhibition of a test compound of Formula (I) can be determined. Flag-tagged MAGL enzyme will be immobilized on anti-Flag beads Immobilized enzyme will be incubated+/−inhibitor at a dose that produces complete inhibition. Colorimetric substrate (4-NPA) will be added and the reaction monitored on a plate reader for 30 minutes to verify complete inhibition. Immobilized enzyme will then be washed thoroughly to remove the inhibitor, and fresh substrate will be added. The reaction will be monitored for an additional 30 minutes; returning enzymatic activity will indicate reversibility of inhibition.
For some test compounds, % activity returning after washout may be less than 100% if complete compound unbinding takes longer than 30 minutes.

human MAGL = molecular target: T2, human MAGL (Homo sapiens, UniProt Q99685); test: MAGL inhibition potency, 4-nitrophenyl acetate (4NPA) hydrolysis, absorbance 405 nm (Example A); format: biochemical; settings: Method 12: Reaction Biology MAGL enzyme, 15 nM; 4NPA substrate; read-out: MAGL Potency (Detection Method)
T2 construct: recombinant MAGL enzyme (aa 2-303 RBC, internal preparation)
T2 sequence (Q99685 2-303): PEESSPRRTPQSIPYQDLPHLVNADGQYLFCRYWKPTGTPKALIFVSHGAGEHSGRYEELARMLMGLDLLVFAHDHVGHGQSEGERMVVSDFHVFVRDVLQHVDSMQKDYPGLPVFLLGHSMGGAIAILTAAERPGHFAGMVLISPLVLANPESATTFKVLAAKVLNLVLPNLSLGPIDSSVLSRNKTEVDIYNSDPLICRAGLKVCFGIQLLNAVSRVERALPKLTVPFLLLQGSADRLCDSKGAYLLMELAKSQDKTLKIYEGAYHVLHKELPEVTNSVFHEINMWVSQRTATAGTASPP
Excerpt: The potency of certain compounds for inhibiting MAGL were obtained using the following assays.
The monoacylglycerol lipase inhibitor screening assay kit from Cayman Chemical was used to measure the MAGL potency for the compounds in Tables A-1, A-2, A-3.
Cayman's Monoacylglycerol Lipase Inhibitor Screening Assay provides a method for screening human MAGL inhibitors. MAGL hydrolyzes 4-nitrophenylacetate resulting in a yellow product, 4-nitrophenol, with an absorbance of 405-412 nm.
MAGL Inhibition was measured by the following assay. Monoacylglycerol Lipase (MAGL) inhibition was measured using recombinant MAGL enzyme (aa 2-303 RBC, internal preparation) and the substrate 4-Nitrophenyl acetate (4NPA) (Sigma-Aldrich, N8130). Hydrolysis of the substrate in the presence of the enzyme was measured by absorbance at 405 nm. 10 μL of assay buffer (10 mM Tris pH 7.5, 1 mM EDTA, 0.9% DMSO) was added to a black 384-well non-binding plate with clear bottom (Greiner, 781906) for each reaction. Compounds were dispensed using an acoustic liquid handler (Echo, Beckman) at 45 nL (0.1% DMSO). Test compounds and control for MAGL inhibitor JZL-184 (Caymen Chemical, 13158) were tested in 10-concentration IC50 mode with 3-fold serial dilution at a starting concentration of […]. DMSO control wells were included for reference. A 10.8 nM (1.8×) MAGL mix in assay buffer was prepared, with 25 μL added to each reaction well, for a final assay concentration of […]. No enzyme wells received 25 μL of buffer. Plate was incubated at room temperature for 30 minutes. 35 mM solution of 4NPA in methanol was prepared daily A 4.5×4NPA substrate solution was prepared in assay buffer and 10 μL was added to each reaction well, for a final assay concentration of 0.25 mM. Plate was spun for 1 minute at 1000 rpm before measuring absorbance using a CLARIOstar plate reader (BMG Labtech). A kinetic reading at 405 nm was done every minute for 30 minutes. Data was analyzed using the linear slope of the reaction progress curve and the average of the no-enzyme wells (background) was subtracted from the data. The background-subtracted slope data was converted to % activity using the average of wells with enzyme and DMSO vehicle. IC50s were calculated using GraphPad software (Sigmoidal dose response, variable slope equation).
Table 8 provides potency measurements of MAGL inhibition measured using the Potency Assay of Example A above, with the following modifications described in Table C.
The number after each letter for potency measurement value indicates the Method from Table C that was used to obtain that measurement value (e.g. “A(1)” indicates an IC50 measurement of <50 nM obtained from the Method 1 of Example A in Table C).

human recombinant FAAH = molecular target: T3, human recombinant FAAH (Homo sapiens, UniProt O00519); test: FAAH counter-screen, AMC arachidonoyl amide substrate (Example B); format: biochemical; settings: Method B; 20 uM AAMCA substrate
T3 construct: purchased Cayman Chemical 700302 (enzyme); kit Item No. 10005196
T3 sequence (O00519 1-579): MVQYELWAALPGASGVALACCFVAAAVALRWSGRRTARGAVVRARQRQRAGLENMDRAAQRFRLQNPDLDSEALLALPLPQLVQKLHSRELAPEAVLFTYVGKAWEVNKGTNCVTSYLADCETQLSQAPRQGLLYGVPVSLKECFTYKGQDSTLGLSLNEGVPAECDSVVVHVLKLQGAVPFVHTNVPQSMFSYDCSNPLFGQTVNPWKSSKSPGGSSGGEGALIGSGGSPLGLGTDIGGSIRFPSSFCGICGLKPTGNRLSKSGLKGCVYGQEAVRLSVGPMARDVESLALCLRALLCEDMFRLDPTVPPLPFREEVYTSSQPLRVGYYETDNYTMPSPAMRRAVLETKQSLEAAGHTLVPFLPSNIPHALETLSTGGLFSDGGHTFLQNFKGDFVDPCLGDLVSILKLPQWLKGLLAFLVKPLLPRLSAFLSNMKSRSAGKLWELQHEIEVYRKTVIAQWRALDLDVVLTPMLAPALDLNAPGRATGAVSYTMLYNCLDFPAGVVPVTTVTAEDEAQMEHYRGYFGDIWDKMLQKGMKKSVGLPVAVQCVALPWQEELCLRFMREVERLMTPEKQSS
Procedure: Comparative compound potency at FAAH can be obtained with the following assay.
MAGL inhibitor compounds were also counter-screened for FAAH inhibition potency using the following assay. Assessment of FAAH inhibition was performed using Fatty Acid Amide Hydrolase Inhibitor Screening Assay Kit (Cayman Item No. 10005196) following manufacture's instruction with some modifications. The kit utilizes human recombinant FAAH and the fluorescent substrate, AMC Arachidonoyl amide (AAMCA). […] 300 nL or 30 nL of test compounds were delivered into a 384-well black plate (Corning, 3573) using a Labcyte Echo, followed by addition of 15 μL of FAAH enzyme (Cayman, 700302) in assay buffer. After a 5-minute pre-incubation at room temperature, 10 μL of AAMCA was added in assay buffer to start the reaction. Final concentration of FAAH enzyme is not specified and AAMCA substrate was used at the 20 uM. After these dilutions, the final concentration of the test compounds ranged from 100 μM to 5.08 nM or 10 μM down to 0.508 nM. The reaction was allowed to progress for 60 minutes, while the plate was read on an Envision plate reader at an Ex/Em of 350/460 nm with readings every minute. The data was analyzed in Microsoft Excel, using the slope between 30 and 59 minutes. The average of the no-enzyme wells (background) was subtracted from the data. The background-subtracted slope data was converted to % activity using the average of wells with enzyme and DMSO vehicle. IC50 values were calculated using GraphPad software (Sigmoidal dose response, variable slope equation).
Compounds listed in Table D were tested in the FAAH Counter-screen of Example B.

[1] = system: brain and peripheral 2-AG; brain AA; settings: irreversible MAGL inhibition; cited from earlier work

Structure (SMILES)	activity at 1 µM (Flag-tagged MAGL enzyme) [%]	degree to which MAGL enzymatic activity returned following washout (Flag-tagged MAGL enzyme)	IC50 (human MAGL) [µM]	IC50 (human recombinant FAAH) [µM]	brain AA [1]	brain and peripheral 2-AG [1]
O=C(c1cc(O)ccc1F)N1CC2(CC(n3nc(C(F)(F)F)cc3-c3ccccn3)C2)C1 [Compound 5, (2-fluoro-5-hydroxyphenyl){6-[5-(2-pyridyl)-3-(trifluoromethyl)-1-pyrazolyl]-2-aza-2-spiro[3.3]heptyl}methanone]	> 50	123%	< 0.05	> 10		
O=C(c1cc(O)ccc1F)N1CC2(CC(n3nc(-c4ccc(=O)[nH]c4)cc3C(F)(F)F)C2)C1 [Compound 10, 5-(1-{2-(2-fluoro-5-hydroxybenzoyl)-2-aza-6-spiro[3.3]heptyl}-5-(trifluoromethyl)-3-pyrazolyl)-2(1H)-pyridinone]	> 50	122%	< 0.05	> 10		
O=C(c1cc(O)ccc1F)N1CC2(CC(n3nc(-c4ccc[nH]c4=O)cc3C(F)(F)F)C2)C1 [Compound 12, 3-(1-{2-(2-fluoro-5-hydroxybenzoyl)-2-aza-6-spiro[3.3]heptyl}-5-(trifluoromethyl)-3-pyrazolyl)-2(1H)-pyridinone]	> 50	135%	< 0.05	> 10		
COc1ncccc1-c1cc(C(F)(F)F)n(C2CC3(C2)CN(C(=O)c2cc(O)ccc2F)C3)n1 [Compound 15, (2-fluoro-5-hydroxyphenyl)(6-(3-(2-methoxypyridin-3-yl)-5-(trifluoromethyl)-1H1-pyrazol-1-yl)-2-azaspiro[3.3]heptan-2-yl)methanone]	> 50	99%	< 0.05	> 10		
COc1ccc(-c2cc(C(F)(F)F)n(C3CC4(C3)CN(C(=O)c3cc(O)ccc3F)C4)n2)cn1 [Compound 17, (2-fluoro-5-hydroxyphenyl) (6-(3-(6-methoxypyridin-3-yl)-5-(trifluoromethyl)-1H-pyrazol-1-yl)-2-azaspiro [3.3]heptan-2-yl) methanone]	> 50	89%	< 0.05	> 10		
O=C(Oc1ccc([N+](=O)[O-])cc1)N1CCC(C(O)(c2ccc3c(c2)OCO3)c2ccc3c(c2)OCO3)CC1 [JZL-184, reference compound]	< 1	complete lack of return of MAGL enzymatic activity			reduce	increase
